In US6399086B1, “Pharmaceutical preparations for the controlled release of beta-lactam antibiotics” (Yissum Research Development Company of the Hebrew …, priority 1997, dated 2002):

Legend:
[1] = Stability of active agent in the dissolution medium; assay type: physicochemical; details: 37° C.
Procedure: Determination of Stability of active Agent in the Dissolution Medium
Following 1, 2, 4, 6, 8 and 24 hrs the absorption profile of the drug between 200 nm and 300 nm was determined and compared with the absorption profile of the solutions before storage.

Streptococci group A = details: cited from earlier work
Streptococci pneumoniae = details: cited from earlier work
Staphylococcus aureus = details: cited from earlier work
Haemophilus influenza = details: cited from earlier work
Enterococcus faecalis = details: cited from earlier work

Compound: CC1(C)S[C@@H]2[C@H](NC(=O)[C@H](N)c3ccc(O)cc3)C(=O)N2[C@H]1C(=O)O [Amoxicillin, amoxicillin trihydrate]
- Stability in solution ([1]; pH=1.2, after 1hr): deterioration occurred
- Stability in solution ([1]; pH=2, after 6 hrs): stable
- Stability in solution ([1]; pH=6.8, after 24 hrs): stable
- Stability in solution ([1]; pH=7.4, after 24 hrs): stable
- MIC (Streptococci group A): 0.01 µg/mL
- MIC (Streptococci pneumoniae): 0.02 µg/mL
- MIC (Staphylococcus aureus): 0.1 µg/mL
- MIC (Haemophilus influenza): 0.25 µg/mL
- MIC (Enterococcus faecalis): 0.5 µg/mL
